Source: ChEMBL document CHEMBL3046093, “Effect of doses of fungicides and plant resistance activators on the control of Rhizoctonia foliar blight of soybean, and on Rhizoctonia solani AG1-IA in vitro development” (Crop Prot, 2006)
In brackets after ≈: the same amount, converted by molar mass. Activity calls are given as the source filed them. The calls are words filed in the database; no cut-off is given here.

Legend:
Rhizoctonia solani [1] = assay: Fungicidal activity against Rhizoctonia solani AG-1 IA assessed as mycelial radial growth at 10 mg/l (reference value: 40 mm); type: functional
Rhizoctonia solani [2] = assay: Fungicidal activity against Rhizoctonia solani AG-1 IA assessed as mycelial radial growth at 100 mg/l (reference value: 40 mm); type: functional
Rhizoctonia solani [3] = assay: Fungicidal activity against Rhizoctonia solani AG-1 IA assessed as mycelial radial growth at 1 mg/l (reference value: 40 mm); type: functional
Rhizoctonia solani [4] = assay: Fungicidal activity against Rhizoctonia solani AG-1 IA assessed as inhibition of mycelial radial growth; type: functional, organism-based
Rhizoctonia solani [5] = assay: Fungicidal activity against Rhizoctonia solani AG-1 IA assessed as mycelial radial growth at 0.1 mg/l (reference value: 40 mm); type: functional
Rhizoctonia solani [6] = assay: Protective effect against Rhizoctonia solani AG-1 IA infected soybean plant at 100 g a.i/ha applied as spray at V5 to V6 growth stage prior to inoculation measured after 5 to 10 days under greenhouse condition relative to control; type: functional, organism-based
Rhizoctonia solani [7] = assay: Curative effect against Rhizoctonia solani AG-1 IA infected soybean plant at 100 g a.i/ha applied as spray at V5 to V6 growth stage post inoculation measured after 5 to 10 days under greenhouse condition relative to control; type: functional, organism-based
Rhizoctonia solani [8] = assay: Protective effect against Rhizoctonia solani AG-1 IA infected soybean plant at 50 g a.i/ha applied as spray at V5 to V6 growth stage prior to inoculation measured after 5 to 10 days under greenhouse condition relative to control; type: functional, organism-based
Rhizoctonia solani [9] = assay: Curative effect against Rhizoctonia solani AG-1 IA infected soybean plant at 50 g a.i/ha applied as spray at V5 to V6 growth stage post inoculation measured after 5 to 10 days under greenhouse condition relative to control; type: functional, organism-based
Glycine max [10] = assay: Phytotoxicity in Glycine max (soybean) plant assessed as dwarfing at 200 g a.i/ha; type: organism-based; conditions: in vivo
Glycine max [11] = assay: Phytotoxicity in Glycine max (soybean) plant assessed as leaf burning at 200 g a.i/ha; type: organism-based; conditions: in vivo
Glycine max [12] = assay: Induction of systemic acquired resistance in Glycine max (soybean) plant infected with Rhizoctonia solani AG-1 IA assessed as reduction in disease severity at 12.5 mg a.i/l applied as spray on day 10 prior to inoculation measured after 5 days relative to control; type: functional; parameters: scale not given: the % may be the effect or the level left
Rhizoctonia solani [13] = assay: Antifungal activity against Rhizoctonia solani AG-1 IA assessed as inhibition of mycelial growth at < 10 mg/l relative to control; type: functional, organism-based
Rhizoctonia solani [14] = assay: Antifungal activity against Rhizoctonia solani AG-1 IA assessed as reduction of mycelial growth at 100 mg/l relative to control; type: functional; parameters: scale not given: the % may be the effect or the level left
Rhizoctonia solani [15] = assay: Antifungal activity against Rhizoctonia solani AG-1 IA assessed as mycelial growth at 1 mg/l (reference value: 40 mm); type: functional
Glycine max [16] = assay: Induction of systemic acquired resistance in Glycine max (soybean) plant infected with Rhizoctonia solani AG-1 IA assessed as reduction in disease severity at 25 mg a.i/l applied as spray on day 5 prior to inoculation measured after 10 days relative to control; type: functional, organism-based
Rhizoctonia solani [17] = assay: Antifungal activity against Rhizoctonia solani AG-1 IA assessed as reduction of mycelial growth at 10 mg/l relative to control; type: functional; parameters: scale not given: the % may be the effect or the level left
Rhizoctonia solani [18] = assay: Antifungal activity against Rhizoctonia solani AG-1 IA assessed as mycelial growth at 0.1 mg/l (reference value: 40 mm); type: functional
Glycine max [19] = assay: Induction of systemic acquired resistance in Glycine max (soybean) plant infected with Rhizoctonia solani AG-1 IA assessed as reduction in disease severity at 12.5 mg a.i/l applied as spray on day 10 prior to inoculation measured after 10 days relative to control; type: functional; parameters: scale not given: the % may be the effect or the level left
Rhizoctonia solani [20] = assay: Protective effect against Rhizoctonia solani AG-1 IA infected soybean plant at 750 g a.i/ha applied as spray at V5 to V6 growth stage prior to inoculation measured after 5 to 10 days under greenhouse condition relative to control; type: functional, organism-based
[21] = Rhizoctonia solani, AG-1 IA, read-out: EC50

Compound | Activity (Rhizoctonia solani [1]) [mm] | Activity (Rhizoctonia solani [2]) [mm] | Activity (Rhizoctonia solani [3]) [mm] | EC90 (Rhizoctonia solani [4]; Rhizoctonia solani, AG-1 IA) [µg/mL] | EC50 (Rhizoctonia solani [4]; [21]) [µg/mL] | Activity (Rhizoctonia solani [5]) [mm] | other results
Clc1ccc(C2(Cn3cncn3)CC(Br)CO2)c(Cl)c1 (configuration not stated) [BROMUCONAZOLE] | 3.6 | 0.7 | 8.2 | 4.81 (≈ 12.8 µM) | 0.097 (≈ 0.257 µM) | 17.9 | –
CCCCNC(=O)n1c(NC(=O)OC)nc2ccccc21 [BENOMYL] | 0 | 0 | 9.6 | 17.4 (≈ 60 µM) | 0.352 (≈ 1.21 µM) | 38.8 | –
CC1COC(Cn2cncn2)(c2ccc(Oc3ccc(Cl)cc3)cc2Cl)O1 (configuration not stated) [DIFENOCONAZOLE] | 2.7 | 1.5 | 5 | 1.13 (≈ 2.78 µM) | 0.023 (≈ 0.0566 µM) | 6.6 | –
COC(=O)N(OC)c1ccccc1COc1ccn(-c2ccc(Cl)cc2)n1 [PYRACLOSTROBIN] | 5.4 | 0 | 8.1 | 4.67 (≈ 12.1 µM) | 0.094 (≈ 0.242 µM) | 17.8 | Activity (Rhizoctonia solani [6]): Active; Activity (Rhizoctonia solani [7]): Active
c1ccc2[nH]c(-c3cscn3)nc2c1 [THIABENDAZOLE] | 0 | 0 | 7.3 | 10.9 (≈ 54.2 µM) | 0.22 (≈ 1.09 µM) | 36.1 | –
TRIPHENYLSTANNANOL [listing 1 of 2 here] | 6.4 | 1 | 10.6 | – | – | 14.1 | EC90 (Rhizoctonia solani [4]): 5.55 µg/mL
CO/C=C(/C(=O)OC)c1ccccc1Oc1cc(Oc2ccccc2C#N)ncn1 [AZOXYSTROBIN] | 13.1 | 10.3 | 16 | 33.1 (≈ 82 µM) | 0.668 (≈ 1.66 µM) | 15.2 | Activity (Rhizoctonia solani [8]): Active; Activity (Rhizoctonia solani [9]): Active
N#Cc1c(Cl)c(Cl)c(Cl)c(C#N)c1Cl [CHLOROTHALONIL] | 7.6 | 4.7 | 19.3 | 49.4 (≈ 186 µM) | 0.998 (≈ 3.75 µM) | 30 | –
CC(C)NC(=O)N1CC(=O)N(c2cc(Cl)cc(Cl)c2)C1=O [IPRODIONE] | 0 | 0 | 5.5 | 11.8 (≈ 35.6 µM) | 0.237 (≈ 0.718 µM) | 39 | –
CO/N=C(/C(=O)OC)c1ccccc1COc1ccccc1C [KRESOXIM-METHYL] | 25.1 | 22 | 26.9 | 490 (≈ 1560 µM) | 9.9 (≈ 31.6 µM) | 26 | –
CC(C)(C)C(O)(CCc1ccc(Cl)cc1)Cn1cncn1 (configuration not stated) [TEBUCONAZOLE] | 3.3 | 0 | 7.6 | 2.42 (≈ 7.85 µM) | 0.049 (≈ 0.159 µM) | 13.5 | Activity (Glycine max [10]): Toxic; Activity (Glycine max [11]): Toxic
COC(=O)NC(=S)Nc1ccccc1NC(=S)NC(=O)OC [THIOPHANATE METHYL] | 20.8 | 0.4 | 36.7 | 537 (≈ 1570 µM) | 10.8 (≈ 31.7 µM) | 39.6 | –
N#Cc1c[nH]cc1-c1cccc2c1OC(F)(F)O2 [FLUDIOXONIL] | 0 | 0 | 0 | 0.161 (≈ 0.649 µM) | 0.003 (≈ 0.0121 µM) | 7.1 | –
TRIPHENYLSTANNANOL [listing 2 of 2 here] | – | – | – | – | – | – | EC50 (Rhizoctonia solani [4]): 0.112 µg/mL
CC12CC1(C)C(=O)N(c1cc(Cl)cc(Cl)c1)C2=O (configuration not stated) [PROCYMIDONE] | 1.2 | 0.6 | 17.6 | – | – | 37.2 | –
CSC(=O)c1cccc2nnsc12 [ACIBENZOLAR-S-METHYL] | – | – | – | – | – | – | Activity (Glycine max [12]): 28.5%; inhibition (Rhizoctonia solani [13]): inactive; Activity (Rhizoctonia solani [14]): 55.2%; Activity (Rhizoctonia solani [15]): 40 mm; Activity (Glycine max [16]): Active; Activity (Rhizoctonia solani [17]): 19%; Activity (Rhizoctonia solani [18]): 40 mm; Activity (Glycine max [19]): 36%
COC(=O)Nc1nc2ccccc2[nH]1 [CARBENDAZIM] | 0 | 0 | 1.5 | 8.41 (≈ 44 µM) | 0.17 (≈ 0.889 µM) | 39 | –
O=[N+]([O-])c1cc(C(F)(F)F)c(Cl)c([N+](=O)[O-])c1Nc1ncc(C(F)(F)F)cc1Cl [FLUAZINAM] | 4.3 | 3.4 | 5.1 | 2.27 (≈ 4.89 µM) | 0.046 (≈ 0.0989 µM) | 9.1 | Activity (Rhizoctonia solani [20]): Active
O=C(O)c1ccccc1O [SALICYLIC ACID] | – | – | – | – | – | – | inhibition (Rhizoctonia solani [13]): inactive; Activity (Rhizoctonia solani [15]): 40 mm; Activity (Rhizoctonia solani [18]): 40 mm
